Measurements from US10179173B2, “Semi-solid delivery systems” (Regents of the University of Minnesota, priority 2012, dated 2019).

Tests used:
[1] = In vitro drug release from drug loaded semi-solid polymer in buffered saline; format: physicochemical
Method: A certain amount of drugs (Ibuprofen or BSA) were grinded into fine particles and then mixed with certain amount of polymer in a glass vial. […] At certain time points, the buffer was removed for analysis and replaced with fresh buffer. The amount of Ibu released in the medium was measured by UV spectroscopy (Beckman Coulter, DU 640B spectrophotometer) for absorbance at 263 nm.

[2] = Solubility of drugs in water and in the semi-solid polymer; format: physicochemical; details: PCL-OE-1
[3] = cited from earlier work
[4] = mouse, in vivo, sc
Method: In vivo biocompatibility of the polymer was evaluated by subcutaneous injection into mice through 18-gauge needles; 50 mg of polymer was injected for each mouse. At certain time point, mouse was sacrificed and the tissue of the injection site harvested, sectioned, and stained with H&E.

Compound	duration of sustained release of Ibu from the semi-solid polymer ([1]; 5 wt % in PCL-OE-1, pH 7.4 and pH 5.0)	effect of pH on sustained release of Ibu ([1]; pH 7.4 versus pH 5.0)	solubility in the semi-solid polymer [2]	solubility in water [3]	tissue damage or inflammatory response at injection site (H&E) [4]
CC(C)Cc1ccc(C(C)C(=O)O)cc1 (centres unmarked) [Ibu, Ibuprofen]	at least three	not affected by pH	excellent solubility	poor solubility in water	
poly(ortho ester caprolactone) [PCL-OE-1]					No visible tissue damage or inflammatory response
